Assay results: patent publication US12576030B2, “Compositions for delivery of codon-optimized mRNA” (Translate Bio, Inc., priority 2020, dated 2026)
“Also recorded” adds a separate entry of the source.

Tested on: male CD1 mice
Test: Luciferase radiance in lung after pulmonary delivery of FFL mRNA-LNPs
Type: in vivo
Conditions: for potency as determined by the average radiance detected in mouse lungs: FFL mRNA-LNP, single intratracheal administration via nebulization, about 5 hours post-dose
Experimental: About 150 cationic lipids were tested. (FIG. 7). Each cationic lipid was used in preparing lipid nanoparticles encapsulating mRNA encoding firefly luciferase protein (FFL mRNA) according to methods known in the art. For example, suitable methods for mRNA encapsulation include methods described in International Publication Nos. WO2016/004318 and WO 2018/089801, which is hereby incorporated by reference in its entirety. The tested lipid nanoparticles comprised a lipid component consisting of a cationic lipid, a non-cationic lipid (DOPE), a PEG-modified lipid (DMG-PEG2K), and optionally cholesterol.
Lipid nanoparticle formulations comprising FFL mRNA were administered to male CD1 mice by a single intratracheal administration via nebulization using a Microsprayer®. At approximately 5 hours post-dose, the animals were dosed with luciferin by intraperitoneal injection and all animals were imaged using an IVIS imaging system to measure luciferase production in the lung. […] Some cationic lipids remarkably had greater than 50-fold increase in pulmonary protein expression as compared to other cationic lipids.

SMILES | potency as determined by the average radiance detected in mouse lungs | historical radiance/expression of pulmonary-delivered FFL mRNA in LNP (LNP comprising the named cationic lipid, pulmonary-delivered (e.g., nebulized)) | potency as determined by the average radiance detected in mouse lungs (listed as REP-E3-E10)
CCCCC/C=C\C/C=C\CCCCCCCC(=O)OCC(COC(=O)CCCCCCC/C=C\C/C=C\CCCCC)(COC(=O)CCCCCCC/C=C\C/C=C\CCCCC)NCCS(=O)(=O)NCCCN(C)C [GL-TES-SA-DMP-E18-2] | performed particularly well; also recorded: particularly high potency |  | 
CC(C)CCCC(C)C1CCC2C3CC=C4CC(OC(=O)CCc5cnc[nH]5)CCC4(C)C3CCC12C (centres unmarked) [ICE, imidazole cholesterol ester, reference compound] |  | around 10^4 p/s/cm^2sr | 
CCCCCCCCC(O)CN(CCCC(=O)OCCN1CC(C)N(CCOC(=O)CCCN(CC(O)CCCCCCCC)CC(O)CCCCCCCC)CC1C)CC(O)CCCCCCCC (centres unmarked) [HEP-E3-E10] | performed particularly well |  | particularly high potency
CCCCCCCCOC(=O)CC(CC(=O)OCCCCCCCC)(OC(=O)CCN(C)C)C(=O)OCCCCCCCC [TL1-01D-DMA, trioctyl 2-((3-(dimethylamino)propanoyl)oxy)propane-1,2,3-tricarboxylate] | performed particularly well; also recorded: particularly high potency |  | 
CCCCC/C=C\C/C=C\CCCCCCCC(=O)OCC(COC(=O)CCCCCCC/C=C\C/C=C\CCCCC)(COC(=O)CCCCCCC/C=C\C/C=C\CCCCC)NCCS(=O)(=O)NCCN(C)C [GL-TES-SA-DME-E18-2, 2-((2-(N-(2-(dimethylamino)ethyl)sulfamoyl)ethyl)amino)-2-((((9Z,12Z)-octadeca-9,12-dienoyl)oxy)methyl)propane-1,3-diyl (9Z,9′Z,12Z,12′Z)-bis(octadeca-9,12-dienoate)] | performed particularly well; also recorded: particularly high potency |  | 
CCCCCCCCC(O)CN(CCCCC(=O)OCCN1CC(C)N(CCOC(=O)CCCCN(CC(O)CCCCCCCC)CC(O)CCCCCCCC)CC1C)CC(O)CCCCCCCC (centres unmarked) [HEP-E4-E10] | performed particularly well; also recorded: particularly high potency |  | 
CCCCCCCCCCCCCCOC(=O)CC(CC(=O)OCCCCCCCCCCCCCC)(OC(=O)CCN(C)C)C(=O)OCCCCCCCCCCCCCC [TL1-04D-DMA] | performed particularly well; also recorded: particularly high potency |  | 
